In US20240245677A1, “SELECTED COMPOUNDS FOR TARGETED DEGRADATION OF BRD9” (C4 THERAPEUTICS, INC., priority 2021, published 2024):

Tests used:
[1] = Variable temperature XRPD (VT-XRPD) experiments; format: physicochemical
Experimental: To investigate form conversion behavior, variable temperature XRPD experiments were conducted for hydrate Pattern A, hydrate Pattern C, hydrate Pattern F and hetero-solvate Pattern L.
Based on DSC and TGA results, variable temperature XRPD was conducted for Pattern A, at different temperatures, including 25° C., 110° C. and 25° C.
Based on DSC and TGA results, variable temperature XRPD was conducted for Pattern B, at different temperatures, including 25° C., 80° C., 130° C. and 25° C. The sample after heating-cooling was placed at 25° C./75% RH condition for 1 day and investigated by XRPD.
Based on DSC and TGA results, variable temperature XRPD was conducted for Pattern C, at different temperatures, including 25° C., 110° C. and 25° C.
Based on DSC and TGA results, variable temperature XRPD was conducted for Pattern F at different temperatures, including 25° C., 110° C. and 25° C. The sample after heating-cooling was placed at 25° C./75% RH condition for 1 day and investigated by XRPD.
Based on DSC and TGA results, variable temperature XRPD was conducted for Pattern L, at different temperatures, including 25° C., 100° C., 140° C., 180° C. and 25° C. The sample after heating-cooling was placed at 25° C./92% RH condition for 24 h and investigated by XRPD.

IKZF1 = molecular target: T1, IKZF1 (Homo sapiens, UniProt Q13422+Q96SW2); assay: IKZF1 HiBiT degradation assay in NCIH929.11 cells; format: cell-based
T1 construct: CRISPR-edited to endogenously express HiBiT tagged IKZF1; host or cells: NCIH929.11

SALL4 = molecular target: T2, SALL4 (Homo sapiens, UniProt Q96SW2+Q9UJQ4); assay: SALL4 HiBiT degradation assay in KELLY.2 cells; format: cell-based; settings: read-out: Mean Emax (%) ± SD
T2 construct: CRISPR-edited to endogenously express HiBiT tagged SALL4; host or cells: KELLY.2
Source text: Nano-Glo® HiBiT Lytic Assay System was purchased from Promega (Catalog No. N3050, Madison, WI, USA). […] The HiBiT polypeptide tag was introduced into the C-terminus of the endogenous SALL4 locus by CRISPR-Cas9 to produce the modified KELLY.2 cell line. The HiBiT polypeptide allows reconstitution of NanoBiT enzyme following cell lysis and addition of the complementing LgBiT polypeptide that activates substrate to produce a luminescent signal that is directly proportional to the amount of HiBiT-tagged SALL4.
KELLY.2 cells were routinely sub-cultured to maintain cell density between 30-80% confluence, not to exceed 10 passages. Cells were washed with PBS, trypsinized for 5 minutes at 37° C., and resuspended in fresh growth media without phenol red. […] Cell concentration was adjusted with growth media without phenol red to 2×10^5 cells/mL.
30 nL DMSO was transferred to all control wells.
30 μL of media was dispensed to column 24 as background positive control (P). Plates were spun briefly at 1000 rpm and cells were incubated at 37° C., 5% CO2 for 6 hours. Final concentration of DMSO was 0.1% for all samples.
Cellular SALL4 protein level was determined based on quantification of HiBiT using Nano-Glo® HiBiT Lytic Assay System (Promega). […] Cells treated in the absence of the test compound (0.1% DMSO vehicle) were the negative control (N) and wells containing only media were the positive control (P).
Percent response of compound-treated samples (T) were calculated by normalizing to the DMSO treated negative (N) controls on the same microtiter plate after background (i.e., positive control) signal subtraction:
Curve fit and DC50 (concentration that degrades 50% SALL4) determination was performed by 4 parametric logistic fit analysis using software such as GraphPad Prism software (GraphPad Software, LLC, San Diego, CA, USA). The fit was performed through minimization of the root mean squared error between observed and calculated values of the four-parameter logistic equation using the simplex optimizer of the Apache Commons Math library. […] DC50 values were computed as the concentrations where the fitted curves cross the 50% response level. Averages and standard deviations were computed from replicates of the experiment.

T1 sequence (Q13422 whole entry): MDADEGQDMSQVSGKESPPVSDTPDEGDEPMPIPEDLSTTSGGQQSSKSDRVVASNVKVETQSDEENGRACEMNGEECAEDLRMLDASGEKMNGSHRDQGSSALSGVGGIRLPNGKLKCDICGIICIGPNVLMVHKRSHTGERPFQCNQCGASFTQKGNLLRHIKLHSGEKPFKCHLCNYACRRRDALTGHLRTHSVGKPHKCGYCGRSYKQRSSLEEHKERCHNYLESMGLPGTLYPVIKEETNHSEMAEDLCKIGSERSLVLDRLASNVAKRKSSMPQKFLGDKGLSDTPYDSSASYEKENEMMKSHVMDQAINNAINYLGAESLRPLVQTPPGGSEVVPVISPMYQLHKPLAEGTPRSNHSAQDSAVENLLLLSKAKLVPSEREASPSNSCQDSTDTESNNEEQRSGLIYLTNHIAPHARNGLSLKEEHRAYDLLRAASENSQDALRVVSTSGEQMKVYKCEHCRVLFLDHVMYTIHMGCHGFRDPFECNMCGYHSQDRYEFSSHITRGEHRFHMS
T1 sequence (Q96SW2 whole entry): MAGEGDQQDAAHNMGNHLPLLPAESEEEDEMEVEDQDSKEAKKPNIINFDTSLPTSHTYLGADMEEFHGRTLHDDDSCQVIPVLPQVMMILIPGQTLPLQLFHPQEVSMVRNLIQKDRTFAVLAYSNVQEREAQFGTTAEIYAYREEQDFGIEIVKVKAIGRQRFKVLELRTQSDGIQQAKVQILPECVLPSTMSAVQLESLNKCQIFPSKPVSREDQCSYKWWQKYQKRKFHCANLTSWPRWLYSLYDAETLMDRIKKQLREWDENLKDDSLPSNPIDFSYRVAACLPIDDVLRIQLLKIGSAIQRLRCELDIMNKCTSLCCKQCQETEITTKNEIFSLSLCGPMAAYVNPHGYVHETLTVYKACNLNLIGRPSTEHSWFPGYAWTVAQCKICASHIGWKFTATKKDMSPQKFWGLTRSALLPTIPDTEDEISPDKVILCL
T1 sequence (Q16531 2-1140 partner limits assumed): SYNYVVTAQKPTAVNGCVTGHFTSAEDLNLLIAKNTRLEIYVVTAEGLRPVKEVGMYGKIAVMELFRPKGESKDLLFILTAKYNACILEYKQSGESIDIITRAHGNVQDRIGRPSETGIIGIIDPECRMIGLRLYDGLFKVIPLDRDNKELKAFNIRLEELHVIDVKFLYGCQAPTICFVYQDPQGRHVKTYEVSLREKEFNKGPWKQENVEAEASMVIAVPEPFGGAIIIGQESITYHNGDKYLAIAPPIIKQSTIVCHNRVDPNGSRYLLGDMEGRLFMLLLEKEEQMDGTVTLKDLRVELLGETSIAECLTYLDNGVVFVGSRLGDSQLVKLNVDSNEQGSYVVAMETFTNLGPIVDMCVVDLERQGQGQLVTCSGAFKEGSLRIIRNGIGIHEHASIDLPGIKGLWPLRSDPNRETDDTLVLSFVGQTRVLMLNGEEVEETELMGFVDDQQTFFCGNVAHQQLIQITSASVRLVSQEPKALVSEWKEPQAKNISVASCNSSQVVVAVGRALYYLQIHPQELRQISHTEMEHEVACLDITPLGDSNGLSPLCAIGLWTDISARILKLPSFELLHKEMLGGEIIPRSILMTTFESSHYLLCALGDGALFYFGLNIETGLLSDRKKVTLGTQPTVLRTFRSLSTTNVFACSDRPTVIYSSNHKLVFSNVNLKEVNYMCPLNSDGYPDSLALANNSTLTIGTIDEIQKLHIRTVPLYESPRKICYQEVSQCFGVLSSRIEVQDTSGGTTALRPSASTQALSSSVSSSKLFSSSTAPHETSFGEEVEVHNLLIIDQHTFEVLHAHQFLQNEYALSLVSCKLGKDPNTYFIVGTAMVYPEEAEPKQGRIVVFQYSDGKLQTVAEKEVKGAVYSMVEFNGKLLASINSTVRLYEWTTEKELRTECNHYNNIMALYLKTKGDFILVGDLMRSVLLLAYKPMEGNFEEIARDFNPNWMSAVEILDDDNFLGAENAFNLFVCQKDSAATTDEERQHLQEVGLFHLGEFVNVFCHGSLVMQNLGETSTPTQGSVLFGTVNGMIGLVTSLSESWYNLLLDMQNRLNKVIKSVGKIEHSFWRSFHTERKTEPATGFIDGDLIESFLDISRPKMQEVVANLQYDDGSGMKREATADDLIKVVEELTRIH
T2 sequence (Q9UJQ4 whole entry): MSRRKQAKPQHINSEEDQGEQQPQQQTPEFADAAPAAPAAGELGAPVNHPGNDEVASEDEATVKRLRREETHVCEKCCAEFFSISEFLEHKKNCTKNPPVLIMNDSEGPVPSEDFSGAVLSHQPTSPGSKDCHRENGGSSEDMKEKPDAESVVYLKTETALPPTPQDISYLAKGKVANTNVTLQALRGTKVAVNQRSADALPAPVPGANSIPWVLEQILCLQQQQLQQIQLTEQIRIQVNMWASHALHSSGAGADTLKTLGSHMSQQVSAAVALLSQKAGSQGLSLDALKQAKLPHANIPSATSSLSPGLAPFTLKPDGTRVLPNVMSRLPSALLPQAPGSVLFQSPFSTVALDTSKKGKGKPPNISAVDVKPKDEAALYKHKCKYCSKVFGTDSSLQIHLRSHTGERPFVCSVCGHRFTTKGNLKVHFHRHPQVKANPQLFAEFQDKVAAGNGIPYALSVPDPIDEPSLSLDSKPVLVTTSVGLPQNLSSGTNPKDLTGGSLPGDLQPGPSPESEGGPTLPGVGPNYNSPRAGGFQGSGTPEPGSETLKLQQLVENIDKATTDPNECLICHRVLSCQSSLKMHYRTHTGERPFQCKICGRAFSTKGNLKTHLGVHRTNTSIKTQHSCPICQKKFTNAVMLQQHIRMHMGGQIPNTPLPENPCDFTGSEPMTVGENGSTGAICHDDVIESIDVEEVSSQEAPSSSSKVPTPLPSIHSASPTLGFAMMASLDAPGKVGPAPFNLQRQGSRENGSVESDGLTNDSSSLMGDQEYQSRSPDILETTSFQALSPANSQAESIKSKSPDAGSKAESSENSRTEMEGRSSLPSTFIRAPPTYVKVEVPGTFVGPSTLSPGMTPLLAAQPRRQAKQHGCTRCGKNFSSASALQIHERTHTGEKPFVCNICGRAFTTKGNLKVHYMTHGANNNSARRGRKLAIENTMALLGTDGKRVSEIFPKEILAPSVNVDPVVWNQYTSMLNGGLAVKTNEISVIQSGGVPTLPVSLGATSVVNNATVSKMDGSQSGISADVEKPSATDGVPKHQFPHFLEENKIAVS
T2 sequence (Q96SW2 whole entry): as the sequence (Q96SW2 whole entry) above
T2 sequence (Q16531 2-1140 partner limits assumed): as the sequence (Q16531 2-1140 partner limits assumed) above

| Structure (SMILES) | XRPD ([1]; 25° C. (start)) | XRPD ([1]; Cool to 25° C.) | XRPD ([1]; Heat to 110° C.) | also measured |
| --- | --- | --- | --- | --- |
| COc1cc(-c2cn(C)c(=O)c(C)c2C)cc(OC)c1CN1CC[C@H](N2CCN(c3ccc(N[C@H]4CCC(=O)NC4=O)cc3F)CC2)C(F)(F)C1 [Pattern L] | Pattern L | Pattern M | – | XRPD ([1]; 25° C./92.5% RH hold 1 day): Pattern M; XRPD ([1]; Heat to 100° C.): Pattern L |
| COc1cc(-c2cn(C)c(=O)c(C)c2C)cc(OC)c1CN1CC[C@H](N2CCN(c3ccc(N[C@H]4CCC(=O)NC4=O)cc3F)CC2)C(F)(F)C1 [Pattern C] | Pattern C | Metastable Pattern I | Metastable Pattern I | XRPD ([1]; 25° C./50% RH hold 2 h): Pattern C |
| COc1cc(-c2cn(C)c(=O)c(C)c2C)cc(OC)c1CN1CC[C@H](N2CCN(c3ccc(N[C@H]4CCC(=O)NC4=O)cc3F)CC2)C(F)(F)C1 [Pattern F] | Pattern F | Pattern H | Pattern H | – |
| COc1cc(-c2cn(C)c(=O)c(C)c2C)cc(OC)c1CN1CC[C@H](N2CCN(c3ccc(N[C@H]4CCC(=O)NC4=O)cc3F)CC2)C(F)(F)C1 [Pattern B] | Pattern B | – | – | – |
| Nc1cccc2c1C(=O)N(C1CCC(=O)NC1=O)C2=O (stereo not drawn) [Pomalidomide, reference compound] | – | – | – | degradation of IKZF1 induced (IKZF1; positive control, 6 hours): 8000; Emax (IKZF1; read-out: Mean Emax (%) ± SD): 20.8 ± 3.2%; Emax (SALL4): 9.5 ± 1.5% |
